Measured values reported in patent US20250064064A1, “METHODS FOR DESIGNING AND […] VAPOR PHASE HYDROGEN PEROXIDE DECON[…]” (Amgen Inc., priority 2021, published 2025).
Read-outs that look alike come from different tables or passages of the source.

Tested on: viable spores of Geobacillus stearothermophilus
Details: for growth results for biological indicators: dose 8 mL, seven BIs, seven-day incubation, no growth = 6-Log CFU reduction
Method: In general, for each of the experiments, a respective amount of gas is circulated in a chamber interior containing Bls (in these experiments, seven Bls) for a respective amount of time. Then, after removing the gas from the chamber interior, the Bls are tested to determine whether the desired CFU reduction was achieved.
One example method of determining whether the desired CFU reduction was achieved is by removing the Bls from the chamber interior after circulating a particular amount of gas for a particular amount of time, and incubating the Bls in a growth-promoting medium for seven days.
In this example, the seven Bls of FIG. 3 may be in one or more locations in the chamber interior (e.g., with at least some in locations that are relatively difficult to decontaminate in the chamber interior). The Bls may be inoculated with viable spores of Geobacillus stearothermophilus, for example, or another suitable type of thermophile bacteria. The D-value of the Bls may be provided by the manufacturer of the Bls and may be, for example, 0.25 minutes, 0.5 minutes, 1 minutes, 1.5 minutes, 2 minutes, 2.5 minutes, or any other suitable D-value.

Compound: OO [gas, hydrogen peroxide]
- growth-no growth behavior with respect to time (10 mL amount of gas compared with 8 mL amount of gas): identical
- growth results for biological indicators (gas circulated for 100 seconds): all but one BI (BI #4) achieving no growth
- growth results for biological indicators (gas circulated for 300 seconds): no growth for all seven Bls
- growth results for biological indicators (gas circulated for 500 seconds): no growth for all seven Bls
